The target of test [1] is human STING C-terminal domain (CTD, residues 139–379) (Homo sapiens, UniProt Q86WV6, H232R). The experiment in a line: Isothermal titration calorimetry. The settings on record: direct ITC titration.
Test [2] deals with WT human STING (Homo sapiens, UniProt Q86WV6, H232R). The experiment in a line: IFNβ induction. The settings on record: L929 cells expressing WT human STING; IFN-β RNA by q-RT-PCR.
The target in test [3] is R232H human STING (Homo sapiens, UniProt Q86WV6). The test can be described thus: IFNβ induction. The settings on record: L929 cells expressing R232H human STING; IFN-β RNA by q-RT-PCR.
The target of test [4] is R232A human STING (Homo sapiens, UniProt Q86WV6, H232A). The experiment in a line: IFNβ induction. The conditions noted are these: L929 cells expressing R232A human STING; IFN-β RNA by q-RT-PCR.
Sequence of R232A human STING (Q86WV6 whole entry H232A): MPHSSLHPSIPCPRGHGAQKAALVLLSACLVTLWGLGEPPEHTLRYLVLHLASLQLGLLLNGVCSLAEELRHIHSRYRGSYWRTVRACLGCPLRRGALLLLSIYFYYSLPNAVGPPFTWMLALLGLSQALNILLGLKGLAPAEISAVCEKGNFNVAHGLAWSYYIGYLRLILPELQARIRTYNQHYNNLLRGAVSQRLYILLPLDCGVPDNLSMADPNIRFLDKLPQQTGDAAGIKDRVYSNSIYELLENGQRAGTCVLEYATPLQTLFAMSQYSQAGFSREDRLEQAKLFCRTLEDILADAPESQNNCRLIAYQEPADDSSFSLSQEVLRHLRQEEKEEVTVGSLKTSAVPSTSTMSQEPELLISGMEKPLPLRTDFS

Sequence of WT human STING (Q86WV6 whole entry H232R): as the sequence (Q86WV6 whole entry H232A) above, with A232R counted along it
Sequence of human STING C-terminal domain (CTD, residues 139–379) (Q86WV6 139-379 H232R): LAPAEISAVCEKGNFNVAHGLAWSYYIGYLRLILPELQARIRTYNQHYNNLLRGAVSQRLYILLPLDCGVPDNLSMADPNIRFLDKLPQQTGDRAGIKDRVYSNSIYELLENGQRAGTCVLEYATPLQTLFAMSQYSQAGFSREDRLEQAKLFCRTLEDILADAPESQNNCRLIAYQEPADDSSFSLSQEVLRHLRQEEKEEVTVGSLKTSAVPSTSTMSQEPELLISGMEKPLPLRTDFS
Sequence of R232H human STING (Q86WV6 whole entry, stated change not applied): as the sequence (Q86WV6 whole entry H232A) above, with A232H counted along it

As for `Nc1nc2c(ncn2[C@@H]2O[C@@H]3COP(=O)(O)O[C@H]4[C@@H](O)[C@H](n5cnc6c(=O)[nH]c(N)nc65)O[C@@H]4COP(=O)(O)O[C@H]3[C@H]2O)c(=O)[nH]1` [c-di-GMP, cyclic di-GMP], the “heat character of binding to STING” value in test [1] is on record as “exothermic”.

poly[I:C]: the IFNβ induction result in test [2], in test [3] and in test [4] was “stimulated IFNβ expression” throughout.

Source of the values: paper PMC3808999 (Molecular cell, 2013).
